Test results as given in patent publication US9617221B2, “Kinase modulators for the treatment of cancer” (Synovo GmbH, priority 2010, dated 2017).

Key:
Format in all cases: cell-based, mice
IL-10 [1] = experiment: IL-10 production by LPS-stimulated murine peritoneal macrophage (ELISA); conditions: for IL-10 by ELISA, % of solvent treated control: murine peritoneal macrophage; for IL-10 (LPS, Macrophages), amount of cytokine: 10 μM, 72 h
Method: (§1) Peritoneal macrophage or splenocytes (lymphocytes and macrophage) were harvested from donor mice using standard techniques. Cells were placed in culture and stimulated with either LPS (10 μg/mL) or concanavalin A 5 μg/mL (Sigma Chemical Co., St Louis, Mo.) in RPMI-1640 medium supplemented with antibiotics, […] 2-mercaptoethanol, 10 mm HEPES buffer and 10% fetal calf serum (FCS) (see Holan et al., 1985) to stimulate macrophage and T-cells respectively. Compounds were added from DMSO stock solutions to a final concentration of 50 μM or less with DMSO not exceeding 1% of total volume. After 72 h, cell supernatant was recovered and the cytokine levels were estimated by ELISA. The effect of compounds on cytokine production was recorded as follows: […]

IL-10 [2] = experiment: IL-10 production by ConA-stimulated T cells; conditions: 10 μM, 72 h
Method: as §1

T cells = experiment: Proliferation of Con A-stimulated T cells; conditions: 10 μM
Method: as §1

NO = NO production by LPS-stimulated macrophages; conditions: 10 μM, 72 h
IFN-g = IFN-g production by ConA-stimulated T cells; conditions: 10 μM, 72 h
Method: as §1

IL-2 = IL-2 production by ConA-stimulated T cells; conditions: 10 μM, 72 h
Method: as §1

IL-6 = IL-6 production by LPS-stimulated macrophages; conditions: 10 μM, 72 h
Method: as §1

B cells = experiment: Proliferation of LPS-stimulated B cells; conditions: 10 μM

CCOC(=O)CCCN(C)C1CC(C)OC(OC2C(C)C(OC3CC(C)(OC)C(O)C(C)O3)C(C)C(=O)OC(CC)C(C)(O)C(O)C(C)N(C)CC(C)CC2(C)O)C1O (centres unmarked) [Compound 27, 4-({2-[2-Ethyl-3,4,10-trihydroxy-13-(5-hydroxy-4-methoxy-4,6-dimethyl-tetrahydro-pyran-2-yloxy)-3,5,6,8,10,12,14-heptamethyl-15-oxo-1-oxa-6-aza-cyclopentadec-11-yloxy]-3-hydroxy-6-methyl-tetrahydro-pyran-4-yl}-methyl-amino)-butyric acid ethyl ester]
IL-10 by ELISA, % of solvent treated control (IL-10 [1]; 1.25 μM inhibitor in medium): 132 % of solvent treated control
IL-10 by ELISA, % of solvent treated control (IL-10 [1]; 5 μM inhibitor in medium): 106 % of solvent treated control
IL-10 by ELISA, % of solvent treated control (IL-10 [1]; 20 μM inhibitor in medium): 17 % of solvent treated control

CCC1OC(=O)C(C)C(OC2CC(C)(OC)C(O)C(C)O2)C(C)C(OC2OC(C)CC(N(C)CCCC(=O)OCC3CO3)C2O)C(C)(O)CC(C)CN(C)C(C)C(O)C1(C)O (centres unmarked) [Compound 29]
IL-10 by ELISA, % of solvent treated control (IL-10 [1]; 1.25 μM inhibitor in medium): 110 % of solvent treated control
IL-10 by ELISA, % of solvent treated control (IL-10 [1]; 5 μM inhibitor in medium): 114 % of solvent treated control
IL-10 by ELISA, % of solvent treated control (IL-10 [1]; 20 μM inhibitor in medium): 106 % of solvent treated control

CCC1OC(=O)C(C)C(OC2CC(C)(OC)C(O)C(C)O2)C(C)C(OC2OC(C)CC(N(C)CCCCCC(=O)OCCO)C2O)C(C)(O)CC(C)CN(C)C(C)C(O)C1(C)O (centres unmarked) [Compound 36]
IL-10 (ConA, T cells), amount of cytokine (IL-10 [2]): 79 % of control treated with solvent alone
Proliferation (Con A, T cells) (T cells): 199 % of control treated with solvent alone
NO (LPS, Macrophages), % of control treated with solvent alone (NO): 100 % of control treated with solvent alone
IFN-g (ConA, T cells), amount of cytokine (IFN-g): 99 % of control treated with solvent alone
IL-2 (ConA, T cells), amount of cytokine (IL-2): 96 % of control treated with solvent alone
IL-10 by ELISA, % of solvent treated control (IL-10 [1]; 2 μM inhibitor in medium): 88 % of solvent treated control
IL-10 by ELISA, % of solvent treated control (IL-10 [1]; 10 μM inhibitor in medium): 116 % of solvent treated control
IL-10 (LPS, Macrophages), amount of cytokine (IL-10 [1]): 116 % of control treated with solvent alone
IL-10 by ELISA, % of solvent treated control (IL-10 [1]; 50 μM inhibitor in medium): 0 % of solvent treated control
IL-6 (LPS, Macrophages), amount of cytokine (IL-6): 91 % of control treated with solvent alone
Proliferation (LPS, B cells) (B cells): 3 % of control treated with solvent alone

CC[C@H]1OC(=O)[C@H](C)[C@@H](O[C@H]2C[C@@](C)(OC)[C@@H](O)[C@H](C)O2)[C@H](C)[C@@H](O[C@@H]2O[C@H](C)C[C@H](N(C)CCCC(=O)OCC(O)CSc3nc(-c4ccc(F)cc4)c(-c4ccnc(NC(C)C(C)C)c4)[nH]3)[C@H]2O)[C@](C)(O)C[C@@H](C)CN(C)[C@H](C)[C@@H](O)[C@]1(C)O (some centres unmarked) [Compound 43a]
IL-10 (ConA, T cells), amount of cytokine (IL-10 [2]): 0 % of control treated with solvent alone
Proliferation (Con A, T cells) (T cells): 0 % of control treated with solvent alone
NO (LPS, Macrophages), % of control treated with solvent alone (NO): 1 % of control treated with solvent alone
IFN-g (ConA, T cells), amount of cytokine (IFN-g): 3 % of control treated with solvent alone
IL-2 (ConA, T cells), amount of cytokine (IL-2): 0 % of control treated with solvent alone
IL-10 by ELISA, % of solvent treated control (IL-10 [1]; 2 μM inhibitor in medium): 16 % of solvent treated control
IL-10 by ELISA, % of solvent treated control (IL-10 [1]; 10 μM inhibitor in medium): 2 % of solvent treated control
IL-10 (LPS, Macrophages), amount of cytokine (IL-10 [1]): 2 % of control treated with solvent alone
IL-10 by ELISA, % of solvent treated control (IL-10 [1]; 50 μM inhibitor in medium): 5 % of solvent treated control
IL-6 (LPS, Macrophages), amount of cytokine (IL-6): 15 % of control treated with solvent alone
Proliferation (LPS, B cells) (B cells): 2 % of control treated with solvent alone

CC[C@H]1OC(=O)[C@H](C)[C@@H](O[C@H]2C[C@@](C)(OC)[C@@H](O)[C@H](C)O2)[C@H](C)[C@@H](O[C@@H]2O[C@H](C)C[C@H](N(C)CCCC(=O)OCC(O)CSc3nc(-c4ccc(F)cc4)c(-c4ccnc(NC5CCOCC5)c4)[nH]3)[C@H]2O)[C@](C)(O)C[C@@H](C)CN(C)[C@H](C)[C@@H](O)[C@]1(C)O (some centres unmarked) [Compound 43b]
IL-10 (ConA, T cells), amount of cytokine (IL-10 [2]): −2 % of control treated with solvent alone
Proliferation (Con A, T cells) (T cells): −2 % of control treated with solvent alone
NO (LPS, Macrophages), % of control treated with solvent alone (NO): 31 % of control treated with solvent alone
IFN-g (ConA, T cells), amount of cytokine (IFN-g): 0 % of control treated with solvent alone
IL-2 (ConA, T cells), amount of cytokine (IL-2): 0 % of control treated with solvent alone
IL-10 by ELISA, % of solvent treated control (IL-10 [1]; 2 μM inhibitor in medium): 27 % of solvent treated control
IL-10 by ELISA, % of solvent treated control (IL-10 [1]; 10 μM inhibitor in medium): −4 % of solvent treated control
IL-10 (LPS, Macrophages), amount of cytokine (IL-10 [1]): −4 % of control treated with solvent alone
IL-10 by ELISA, % of solvent treated control (IL-10 [1]; 50 μM inhibitor in medium): −4 % of solvent treated control
IL-6 (LPS, Macrophages), amount of cytokine (IL-6): 94 % of control treated with solvent alone
Proliferation (LPS, B cells) (B cells): −3 % of control treated with solvent alone

CC[C@H]1OC(=O)[C@H](C)[C@@H](O)[C@H](C)[C@@H](O[C@@H]2O[C@H](C)C[C@H](N(C)CCCC(=O)OCC(O)CSc3nc(-c4ccc(F)cc4)c(-c4ccnc(NC5CCOCC5)c4)[nH]3)[C@H]2O)[C@](C)(O)C[C@@H](C)CN(C)[C@H](C)[C@@H](O)[C@]1(C)O (some centres unmarked) [Compound 43c]
IL-10 (ConA, T cells), amount of cytokine (IL-10 [2]): 25 % of control treated with solvent alone
Proliferation (Con A, T cells) (T cells): 113 % of control treated with solvent alone
NO (LPS, Macrophages), % of control treated with solvent alone (NO): 82 % of control treated with solvent alone
IFN-g (ConA, T cells), amount of cytokine (IFN-g): 72 % of control treated with solvent alone
IL-2 (ConA, T cells), amount of cytokine (IL-2): 90 % of control treated with solvent alone
IL-10 by ELISA, % of solvent treated control (IL-10 [1]; 2 μM inhibitor in medium): 18 % of solvent treated control
IL-10 by ELISA, % of solvent treated control (IL-10 [1]; 10 μM inhibitor in medium): 7 % of solvent treated control
IL-10 (LPS, Macrophages), amount of cytokine (IL-10 [1]): 7 % of control treated with solvent alone
IL-10 by ELISA, % of solvent treated control (IL-10 [1]; 50 μM inhibitor in medium): −4 % of solvent treated control
IL-6 (LPS, Macrophages), amount of cytokine (IL-6): 95 % of control treated with solvent alone
Proliferation (LPS, B cells) (B cells): 2 % of control treated with solvent alone

CCC(C)Nc1cc(-c2[nH]c(SCC(O)COC(=O)CCCN(C)[C@H]3C[C@@H](C)O[C@@H](O[C@@H]4[C@@H](C)[C@H](O[C@H]5C[C@@](C)(OC)[C@@H](O)[C@H](C)O5)[C@@H](C)C(=O)O[C@H](CC)[C@@](C)(O)[C@H](O)[C@@H](C)N(C)C[C@H](C)C[C@@]4(C)O)[C@@H]3O)nc2-c2ccc(F)cc2)ccn1 (some centres unmarked) [Compound 43d]
IL-10 (ConA, T cells), amount of cytokine (IL-10 [2]): −2 % of control treated with solvent alone
Proliferation (Con A, T cells) (T cells): −2 % of control treated with solvent alone
NO (LPS, Macrophages), % of control treated with solvent alone (NO): 52 % of control treated with solvent alone
IFN-g (ConA, T cells), amount of cytokine (IFN-g): 3 % of control treated with solvent alone
IL-2 (ConA, T cells), amount of cytokine (IL-2): 0 % of control treated with solvent alone
IL-10 by ELISA, % of solvent treated control (IL-10 [1]; 2 μM inhibitor in medium): 15 % of solvent treated control
IL-10 by ELISA, % of solvent treated control (IL-10 [1]; 10 μM inhibitor in medium): −4 % of solvent treated control
IL-10 (LPS, Macrophages), amount of cytokine (IL-10 [1]): −4 % of control treated with solvent alone
IL-10 by ELISA, % of solvent treated control (IL-10 [1]; 50 μM inhibitor in medium): −4 % of solvent treated control
IL-6 (LPS, Macrophages), amount of cytokine (IL-6): 95 % of control treated with solvent alone
Proliferation (LPS, B cells) (B cells): −3 % of control treated with solvent alone

CCC(C)Nc1cc(-c2[nH]c(SCC(O)COC(=O)CCCN(C)[C@H]3C[C@@H](C)O[C@@H](O[C@@H]4[C@@H](C)[C@H](O)[C@@H](C)C(=O)O[C@H](CC)[C@@](C)(O)[C@H](O)[C@@H](C)N(C)C[C@H](C)C[C@@]4(C)O)[C@@H]3O)nc2-c2ccc(F)cc2)ccn1 (some centres unmarked) [Compound 43e]
IL-10 (ConA, T cells), amount of cytokine (IL-10 [2]): −2 % of control treated with solvent alone
Proliferation (Con A, T cells) (T cells): −1 % of control treated with solvent alone
NO (LPS, Macrophages), % of control treated with solvent alone (NO): 1 % of control treated with solvent alone
IFN-g (ConA, T cells), amount of cytokine (IFN-g): 0 % of control treated with solvent alone
IL-2 (ConA, T cells), amount of cytokine (IL-2): 0 % of control treated with solvent alone
IL-10 by ELISA, % of solvent treated control (IL-10 [1]; 2 μM inhibitor in medium): −4 % of solvent treated control
IL-10 by ELISA, % of solvent treated control (IL-10 [1]; 10 μM inhibitor in medium): −4 % of solvent treated control
IL-10 (LPS, Macrophages), amount of cytokine (IL-10 [1]): −4 % of control treated with solvent alone
IL-10 by ELISA, % of solvent treated control (IL-10 [1]; 50 μM inhibitor in medium): −4 % of solvent treated control
IL-6 (LPS, Macrophages), amount of cytokine (IL-6): 29 % of control treated with solvent alone
Proliferation (LPS, B cells) (B cells): −3 % of control treated with solvent alone

CC[C@H]1OC(=O)[C@H](C)[C@@H](O[C@H]2C[C@@](C)(OC)[C@@H](O)[C@H](C)O2)[C@H](C)[C@@H](O[C@@H]2O[C@H](C)C[C@H](N(C)CCCC(=O)OCC(O)CSc3nc(-c4ccc(F)cc4)c(-c4ccnc(NC(C)C)c4)[nH]3)[C@H]2O)[C@](C)(O)C[C@@H](C)CN(C)[C@H](C)[C@@H](O)[C@]1(C)O (some centres unmarked) [Compound 43f]
IL-10 (ConA, T cells), amount of cytokine (IL-10 [2]): 0 % of control treated with solvent alone
Proliferation (Con A, T cells) (T cells): −8 % of control treated with solvent alone
NO (LPS, Macrophages), % of control treated with solvent alone (NO): 2 % of control treated with solvent alone
IFN-g (ConA, T cells), amount of cytokine (IFN-g): 61 % of control treated with solvent alone
IL-2 (ConA, T cells), amount of cytokine (IL-2): -1 % of control treated with solvent alone
IL-10 by ELISA, % of solvent treated control (IL-10 [1]; 2 μM inhibitor in medium): −1 % of solvent treated control
IL-10 by ELISA, % of solvent treated control (IL-10 [1]; 10 μM inhibitor in medium): −10 % of solvent treated control
IL-10 (LPS, Macrophages), amount of cytokine (IL-10 [1]): −10 % of control treated with solvent alone
IL-10 by ELISA, % of solvent treated control (IL-10 [1]; 50 μM inhibitor in medium): 27 % of solvent treated control
IL-6 (LPS, Macrophages), amount of cytokine (IL-6): 30 % of control treated with solvent alone
Proliferation (LPS, B cells) (B cells): −6 % of control treated with solvent alone
